One data set has as its system Escherichia coli. Description: Antimicrobial activity against Escherichia coli by disk diffusion assay. The class given is functional, organism-based.
The subject of the next data set is Pseudomonas aeruginosa. Description: Antimicrobial activity against Pseudomonas aeruginosa by disk diffusion assay. It is filed as functional, organism-based. For orientation: In agar diffusion tests the substance spreads into inoculated agar from a disc or well.
A further data set concerns Fusarium oxysporum. In words: Antimicrobial activity against Fusarium oxysporum by disk diffusion assay. It is filed as functional, organism-based.
The subject of the next data set is Geotrichum candidum. Description: Antimicrobial activity against Geotrichum candidum by disk diffusion assay. The class given is functional, organism-based.
In the next data set the test system is Aspergillus niger. In words: Antimicrobial activity against Aspergillus niger by disk diffusion assay. The class given is functional, organism-based.
In the next data set the test system is Artemia salina. In words: Toxicity in Artemia salina after 24 hrs. The class given is organism-based. The settings on record: in vivo.
In a further data set the test system is Candida albicans. In words: Antimicrobial activity against Candida albicans by disk diffusion assay. The class given is functional, organism-based.

The source made the active and inactive calls. The calls are words filed in the database; no cut-off is given here.

As to `CCCCCCCC[C@H](C(=O)O)[C@H](C)C(=O)O` [SPHAERIC ACID], the outcome in the data set on Escherichia coli, in the data set on Pseudomonas aeruginosa, in the data set on Fusarium oxysporum, in the data set on Geotrichum candidum, in the data set with Aspergillus niger and in the data set with Candida albicans was inactive. The Activity entry with Artemia salina is given as “Non-toxic”.

These data come from ChEMBL document CHEMBL1157273, “Sphaeric acid, a new succinic acid derivative from a Sphaeropsis sp” (J Nat Prod, 1999).
